Measurements: patent US20210070748A1, “INHIBITORS OF BRUTONS TYROSINE KINASE” (Pharmacyclics LLC, priority 2015, published 2021)
pIC50: −log10 of the molar value.

Columns and labels:
Assay type in all cases: biochemical
ITK = biological target: T1, ITK (Homo sapiens, UniProt Q08881); experiment: Inhibition of a panel of kinases, in vitro HotSpot kinase assay: ITK; settings: D-compounds panel data; 1 μM ATP
T1 sequence (Q08881 1-620): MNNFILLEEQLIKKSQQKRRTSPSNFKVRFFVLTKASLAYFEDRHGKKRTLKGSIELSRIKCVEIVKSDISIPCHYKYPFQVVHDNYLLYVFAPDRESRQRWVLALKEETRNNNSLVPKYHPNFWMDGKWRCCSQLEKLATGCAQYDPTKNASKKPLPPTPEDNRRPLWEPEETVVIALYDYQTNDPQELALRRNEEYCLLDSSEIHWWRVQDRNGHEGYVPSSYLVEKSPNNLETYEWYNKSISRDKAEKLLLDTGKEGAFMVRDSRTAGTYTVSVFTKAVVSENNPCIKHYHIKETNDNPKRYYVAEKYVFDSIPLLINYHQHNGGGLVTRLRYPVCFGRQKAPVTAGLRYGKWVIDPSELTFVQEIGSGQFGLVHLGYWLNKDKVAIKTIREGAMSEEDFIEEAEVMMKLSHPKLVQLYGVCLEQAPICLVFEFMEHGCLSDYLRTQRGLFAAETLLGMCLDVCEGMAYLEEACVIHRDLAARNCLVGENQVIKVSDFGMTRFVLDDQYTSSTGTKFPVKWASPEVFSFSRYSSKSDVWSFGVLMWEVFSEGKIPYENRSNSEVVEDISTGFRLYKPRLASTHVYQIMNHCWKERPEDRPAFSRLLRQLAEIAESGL
Description: (§1) The degree of inhibition of a panel of kinases is determined using the in vitro HotSpot kinase assay (purified enzymes, ^33P-ATP, an appropriate substrate and 1 μM ATP).

JAK3 = biological target: T2, JAK3 (Homo sapiens, UniProt P52333); experiment: Inhibition of a panel of kinases, in vitro HotSpot kinase assay: JAK3; settings: D-compounds panel data; 1 μM ATP; read-out: IC50 JAK3
T2 sequence (P52333 1-1124): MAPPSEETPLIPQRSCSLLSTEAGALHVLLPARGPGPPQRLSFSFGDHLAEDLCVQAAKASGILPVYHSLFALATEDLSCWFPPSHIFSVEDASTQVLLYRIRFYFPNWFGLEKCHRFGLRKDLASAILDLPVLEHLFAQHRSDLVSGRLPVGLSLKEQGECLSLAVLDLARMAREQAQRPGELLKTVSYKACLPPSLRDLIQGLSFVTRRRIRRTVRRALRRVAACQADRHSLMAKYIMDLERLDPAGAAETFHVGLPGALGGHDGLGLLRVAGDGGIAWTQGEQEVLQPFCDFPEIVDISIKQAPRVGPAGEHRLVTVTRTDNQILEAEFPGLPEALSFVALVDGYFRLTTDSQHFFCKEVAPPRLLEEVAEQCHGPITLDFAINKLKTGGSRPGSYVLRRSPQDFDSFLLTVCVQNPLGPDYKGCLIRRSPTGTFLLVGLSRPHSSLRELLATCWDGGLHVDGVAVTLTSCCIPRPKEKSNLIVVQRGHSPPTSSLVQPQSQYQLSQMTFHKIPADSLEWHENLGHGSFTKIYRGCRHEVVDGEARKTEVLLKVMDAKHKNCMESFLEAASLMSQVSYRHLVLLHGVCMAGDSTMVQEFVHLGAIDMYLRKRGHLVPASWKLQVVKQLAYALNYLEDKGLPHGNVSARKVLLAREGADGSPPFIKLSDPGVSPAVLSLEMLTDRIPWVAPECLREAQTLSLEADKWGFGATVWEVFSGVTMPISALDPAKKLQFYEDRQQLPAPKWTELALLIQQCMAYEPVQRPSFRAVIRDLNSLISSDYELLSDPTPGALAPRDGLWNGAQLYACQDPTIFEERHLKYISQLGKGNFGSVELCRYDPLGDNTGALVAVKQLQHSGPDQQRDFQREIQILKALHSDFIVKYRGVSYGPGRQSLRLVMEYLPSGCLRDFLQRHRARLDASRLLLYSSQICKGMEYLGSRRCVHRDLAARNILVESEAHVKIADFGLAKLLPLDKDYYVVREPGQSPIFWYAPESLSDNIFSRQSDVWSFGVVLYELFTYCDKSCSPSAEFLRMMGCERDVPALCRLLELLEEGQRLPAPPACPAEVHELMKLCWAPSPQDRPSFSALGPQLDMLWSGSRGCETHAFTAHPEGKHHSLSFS

SRC = SRC (Homo sapiens, UniProt P12931); experiment: Inhibition of a panel of kinases, in vitro HotSpot kinase assay: SRC; settings: D-compounds panel data; 1 μM ATP
Description: as §1

LCK = LCK (Homo sapiens, UniProt P06239); experiment: Inhibition of a panel of kinases, in vitro HotSpot kinase assay: LCK; settings: D-compounds panel data; 1 μM ATP; read-out: IC50 LCK
TEC = biological target: T3, TEC (Homo sapiens, UniProt P42680); experiment: Inhibition of a panel of kinases, in vitro HotSpot kinase assay: TEC; settings: D-compounds panel data; 1 μM ATP
T3 sequence (P42680 1-631): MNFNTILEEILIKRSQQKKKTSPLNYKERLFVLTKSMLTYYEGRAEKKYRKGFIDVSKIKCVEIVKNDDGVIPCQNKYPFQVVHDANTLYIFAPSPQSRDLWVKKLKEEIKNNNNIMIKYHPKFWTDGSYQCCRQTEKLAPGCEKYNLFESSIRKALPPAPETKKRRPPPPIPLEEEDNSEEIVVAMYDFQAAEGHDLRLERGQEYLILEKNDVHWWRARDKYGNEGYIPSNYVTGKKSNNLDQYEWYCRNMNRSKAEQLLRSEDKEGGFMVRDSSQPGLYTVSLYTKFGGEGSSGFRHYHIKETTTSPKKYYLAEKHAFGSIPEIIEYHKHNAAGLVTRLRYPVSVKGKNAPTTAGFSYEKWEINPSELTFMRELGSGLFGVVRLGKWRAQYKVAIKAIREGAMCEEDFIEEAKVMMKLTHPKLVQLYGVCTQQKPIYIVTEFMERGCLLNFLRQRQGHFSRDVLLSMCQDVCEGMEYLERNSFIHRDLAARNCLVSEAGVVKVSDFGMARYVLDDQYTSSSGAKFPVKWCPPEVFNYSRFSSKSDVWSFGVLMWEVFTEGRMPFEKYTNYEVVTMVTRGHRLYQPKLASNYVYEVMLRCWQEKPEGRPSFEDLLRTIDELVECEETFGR
Description: as §1

LCK, sequence (P06239 whole entry): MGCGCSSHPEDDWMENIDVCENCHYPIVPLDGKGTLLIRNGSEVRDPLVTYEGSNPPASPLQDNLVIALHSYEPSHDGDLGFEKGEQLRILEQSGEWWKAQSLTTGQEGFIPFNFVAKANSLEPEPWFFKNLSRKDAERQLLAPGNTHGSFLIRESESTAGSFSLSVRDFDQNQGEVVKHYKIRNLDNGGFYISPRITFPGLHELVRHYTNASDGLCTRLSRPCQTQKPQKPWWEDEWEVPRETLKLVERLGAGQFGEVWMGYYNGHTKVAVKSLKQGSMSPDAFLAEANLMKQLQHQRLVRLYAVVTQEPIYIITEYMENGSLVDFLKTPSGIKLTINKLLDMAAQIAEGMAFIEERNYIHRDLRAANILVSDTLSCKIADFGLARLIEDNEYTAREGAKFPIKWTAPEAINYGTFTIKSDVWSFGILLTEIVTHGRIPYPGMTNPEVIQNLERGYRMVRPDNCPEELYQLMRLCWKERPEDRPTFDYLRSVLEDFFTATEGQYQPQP
SRC, sequence (P12931 whole entry): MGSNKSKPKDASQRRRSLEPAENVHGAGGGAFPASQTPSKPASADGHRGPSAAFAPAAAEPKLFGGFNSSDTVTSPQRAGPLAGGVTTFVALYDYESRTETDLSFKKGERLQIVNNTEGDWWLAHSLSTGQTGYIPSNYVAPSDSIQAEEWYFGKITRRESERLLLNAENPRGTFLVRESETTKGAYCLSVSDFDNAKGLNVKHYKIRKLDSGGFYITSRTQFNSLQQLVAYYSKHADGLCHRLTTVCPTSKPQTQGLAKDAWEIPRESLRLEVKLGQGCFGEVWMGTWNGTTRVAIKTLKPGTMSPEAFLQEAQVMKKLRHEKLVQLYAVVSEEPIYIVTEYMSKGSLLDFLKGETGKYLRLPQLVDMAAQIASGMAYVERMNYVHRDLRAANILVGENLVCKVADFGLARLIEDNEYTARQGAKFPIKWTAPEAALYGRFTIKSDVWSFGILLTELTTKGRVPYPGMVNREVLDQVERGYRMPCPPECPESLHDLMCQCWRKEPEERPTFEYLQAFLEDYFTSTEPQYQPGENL

Structure (SMILES) | pIC50 (ITK) | pIC50 (JAK3) | pIC50 (SRC) | pIC50 (LCK) | pIC50 (TEC)
C[C@@H]1[C@H](NC(=O)c2ccc(C3CC3)cc2F)CCCN1c1cnc(C(N)=O)c(Nc2cnn(C)c2)c1 [Example D-117, 5-[(2R,3R)-3-(4-cyclopropyl-2-fluorobenzamido)-2-methylpiperidin-1-yl]-3-[(1-methyl-1H-pyrazol-4-yl)amino]pyridine-2-carboxamide] | 5.00 to 6.00 | 5.00 to 6.00 | 6.00 to 7.00 | 6.00 to 7.00 | 6.00 to 7.00
C[C@H]1CC[C@@H](NC(=O)c2ccc(C3CC3)cc2)CN1c1cnc(C(N)=O)c(Nc2cnn(C)c2)n1 [Example D-142, 5-[(2S,5R)-5-(4-cyclopropylbenzamido)-2-methylpiperidin-1-yl]-3-[(1-methyl-1H-pyrazol-4-yl)amino]pyrazine-2-carboxamide] | 5.00 to 6.00 | 6.00 to 7.00 | 7.00 to 8.00 | 7.00 to 8.00 | 7.00 to 8.00
C[C@@H]1[C@H](NC(=O)N(C)C)CCCN1c1cnc(C(N)=O)c(Nc2ccc(N3CCN(C)CC3)cc2)c1 [Example D-127, 5-[(2R,3R)-3-[(dimethylcarbamoyl)amino]-2-methylpiperidin-1-yl]-3-{[4-(4-methylpiperazin-1-yl)phenyl]amino}pyridine-2-carboxamide] | 5.00 to 6.00 | < 5.00 | 5.00 to 6.00 | 5.00 to 6.00 | 5.00 to 6.00
CC(=O)NC(C)(C)c1ccc(C(=O)N[C@@H]2CCCN(c3cnc(C(N)=O)c(Nc4cnn(C)c4)n3)[C@@H]2C)cc1 [Example D-107, 5-[(2R,3R)-3-[4-(2-acetamidopropan-2-yl)benzamido]-2-methylpiperidin-1-yl]-3-[(1-methyl-1H-pyrazol-4-yl)amino]pyrazine-2-carboxamide] | 6.00 to 7.00 | 5.00 to 6.00 | 7.00 to 8.00 | 6.00 to 7.00 | ≥ 8.00
CN1CCN(Cc2ccc(Nc3nc(N4CCC[C@@H](n5ccc6cc(C7CC7)ccc6c5=O)C4)cnc3C(N)=O)cc2)CC1 [Example D-167, 5-[(3R)-3-(6-cyclopropyl-1-oxo-1,2-dihydroisoquinolin-2-yl)piperidin-1-yl]-3-({4-[(4-methylpiperazin-1-yl)methyl]phenyl}amino)pyrazine-2-carboxamide] | 6.00 to 7.00 | 6.00 to 7.00 | 6.00 to 7.00 | 6.00 to 7.00 | 7.00 to 8.00
C[C@@H]1[C@H](NC(=O)c2ccc(C3CC3)cc2)CCCN1c1cnc(C(N)=O)c(Nc2ccc(N3CCC4(CC3)COC4)cc2)n1 [Example D-99, 5-[(2R,3R)-3-(4-cyclopropylbenzamido)-2-methylpiperidin-1-yl]-3-[(4-{2-oxa-7-azaspiro[3.5]nonan-7-yl}phenyl)amino]pyrazine-2-carboxamide] | 6.00 to 7.00 | 6.00 to 7.00 | 6.00 to 7.00 | 6.00 to 7.00 | ≥ 8.00
C[C@@H]1CC[C@H](NC(=O)c2ccc(C3CC3)cc2)CN1c1cnc(C(N)=O)c(Nc2ccc(N3CCN(C)CC3)c(F)c2)n1 [Example D-149, 5-[(2R,5 S)-5-(4-cyclopropylbenzamido)-2-methylpiperidin-1-yl]-3-{[3-fluoro-4-(4-methylpiperazin-1-yl)phenyl]amino}pyrazine-2-carboxamide] | 6.00 to 7.00 | 5.00 to 6.00 | 6.00 to 7.00 | 6.00 to 7.00 | 6.00 to 7.00
CN(C)c1ccc2c(c1)CCN([C@@H]1CCCN(c3cnc(C(N)=O)c(Nc4cnn(C)c4)n3)C1)C2=O [Example D-156, 5-[(3R)-3-[6-(dimethylamino)-1-oxo-1,2,3,4-tetrahydroisoquinolin-2-yl]piperidin-1-yl]-3-[(1-methyl-1H-pyrazol-4-yl)amino]pyrazine-2-carboxamide] | 6.00 to 7.00 | 5.00 to 6.00 | 6.00 to 7.00 | 5.00 to 6.00 | 7.00 to 8.00

Continued, values first:

pIC50 (ITK) | pIC50 (JAK3) | pIC50 (SRC) | pIC50 (LCK) | pIC50 (TEC) | Structure (SMILES)
6.00 to 7.00 | 6.00 to 7.00 | 7.00 to 8.00 | 7.00 to 8.00 | ≥ 8.00 | Cc1cc(Nc2nc(N3CCC[C@@H](NC(=O)c4ccc(C(C)(C)O)cc4)[C@H]3C)cnc2C(N)=O)sn1 [Example D-159, 5-[(2R,3R)-3-[4-(2-hydroxypropan-2-yl)benzamido]-2-methylpiperidin-1-yl]-3-[(3-methyl-1,2-thiazol-5-yl)amino]pyrazine-2-carboxamide]
6.00 to 7.00 | < 5.00 | 5.00 to 6.00 | 6.00 to 7.00 | 6.00 to 7.00 | C[C@@H]1[C@H](NC(=O)c2ccc(C3CC3)cc2)CCCN1c1cnc(C(N)=O)c(Nc2ccc(N3CCN(C)CC3)cc2F)n1 [Example D-103, 5-[(2R,3R)-3-(4-cyclopropylbenzamido)-2-methylpiperidin-1-yl]-3-{[2-fluoro-4-(4-methylpiperazin-1-yl)phenyl]amino}pyrazine-2-carboxamide]
5.00 to 6.00 | < 5.00 | < 5.00 | 5.00 to 6.00 | 5.00 to 6.00 | C[C@@H]1[C@H](NC(=O)c2ccc(C3CC3)cc2F)CCCN1c1cnc(C(N)=O)c(Nc2ccc(CN3CCN(C)CC3)cn2)n1 [Example D-132, 5-[(2R,3R)-3-(4-cyclopropyl-2-fluorobenzamido)-2-methylpiperidin-1-yl]-3-({5-[(4-methylpiperazin-1-yl)methyl]pyridin-2-yl}amino)pyrazine-2-carboxamide]
6.00 to 7.00 | < 5.00 | 7.00 to 8.00 | 6.00 to 7.00 | 7.00 to 8.00 | C[C@@H]1[C@H](NC(=O)c2ccc(C(C)(C)N(C)C)cc2)CCCN1c1cnc(C(N)=O)c(Nc2cnn(C)c2)n1 [Example D-108, 5-[(2R,3R)-3-{4-[2-(dimethylamino)propan-2-yl]benzamido}-2-methylpiperidin-1-yl]-3-[(1-methyl-1H-pyrazol-4-yl)amino]pyrazine-2-carboxamide]
6.00 to 7.00 | 5.00 to 6.00 | 6.00 to 7.00 | 6.00 to 7.00 | 6.00 to 7.00 | C[C@@H]1[C@H](NC(=O)N(C)C)CCCN1c1cnc(C(N)=O)c(Nc2cc(CN3CCOCC3)ns2)n1 [Example D-118, 5-[(2R,3R)-3-[(dimethylcarbamoyl)amino]-2-methylpiperidin-1-yl]-3-{[3-(morpholin-4-ylmethyl)-1,2-thiazol-5-yl]amino}pyrazine-2-carboxamide]
